From US6407250B1, “Interphenylene 7-oxabicyclic [2.2.1] heptane oxazoles as prostaglandin F2a antagonists” (Allergan Sales, Inc., priority 2000, dated 2002)

Target: T1, human FP receptor (Homo sapiens, UniProt P43088)
T1 construct: expressed in transfected cells
Test: Ca2+ signaling: antagonism of the 17-phenyl PGF2α response in HEK cells stably transfected with the human FP receptor
Type: cell-based
Details: compared with the compound of U.S. Pat. Nos. 5,100,889 and 5,153,327
Experimental: The compound of Example 22 was tested for PGF2αantagonist activity as follows:
HEK cells stably transfected with the human FP receptor were removed from the culture flasks by approximately 1 min treatment with trypsin 0.05%/0.53 mM EDTA in HBSS (Gibco, Grand Island, N.Y.) at 37° C. Proteolytic activity was arrested by adding 5 ml of 10% fetal bovine serum in DMEM. The cells were consecutively washed in Hank's BSS and medium containing 140 mM NaCl, […], 1 mM MgCl2, 1.5 mM CaCl2, 10 mM HEPES: TRIS, 5 mM glucose, 5 mM Na pyruvate, 0.1% bovine serum albumin at pH 7.4: centrifugation for the washes was performed for 15 minutes at 200 g at room temperature. Cells were counted, resuspended in the above medium and incubated with 2×10^−6 M Fura 2/acetoxymethyl ester in a shaking water bath for 30 minutes at 37° C. The cells were subsequently washed in medium as above and resuspended at a concentration of 2×10^6 cells ml^−1. Aliquots of 0.5 ml cell suspension were then added to autocap microtubes to provide 10^6 cells per experimental determination of intracellular free Ca^2+concentration ([Ca^2+]i).
Fluorescence was measured in a Perkin-Elmer LS-5 fluorescence spectrophotometer at excitation and emission wavelengths of 340 and 492 nm, respectively, with both slits at 10 nm. […]

T1 sequence (P43088 whole entry): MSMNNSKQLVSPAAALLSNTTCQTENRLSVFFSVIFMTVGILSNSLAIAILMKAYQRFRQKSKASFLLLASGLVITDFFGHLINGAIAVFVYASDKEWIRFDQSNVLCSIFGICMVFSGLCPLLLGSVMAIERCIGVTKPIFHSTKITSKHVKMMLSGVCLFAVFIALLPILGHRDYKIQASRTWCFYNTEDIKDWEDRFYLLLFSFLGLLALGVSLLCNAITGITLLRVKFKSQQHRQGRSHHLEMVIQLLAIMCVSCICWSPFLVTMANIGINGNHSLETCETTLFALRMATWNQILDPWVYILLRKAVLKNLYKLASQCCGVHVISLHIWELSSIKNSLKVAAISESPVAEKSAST

COC(=O)CCc1ccccc1CC1C2CCC(O2)C1c1nc(C(=O)NCCCCC2CCCCC2)co1 (centres unmarked)
PGF2α antagonist activity (comparison in words): much less active than the corresponding acid

O=C(O)CCc1ccc(F)cc1C[C@@H]1[C@H](c2nc(C(=O)NCCCCC3CCCCC3)co2)[C@H]2CC[C@H]1O2 [Example 22, 3-(2-{(1R, 2R, 3S, 4R)-3-[4-(4-Cyclohexyl-butylcarbamoyl)-oxazol-2-yl]-7-oxa-bicyclo[2.2.1]hept-2-ylmethyl}-4-fluoro-phenyl)-propionic acid]
PGF2α antagonist activity (comparison in words): greater than the compound disclosed in U.S. Pat. Nos. 5,100,889 and 5,153,327
